Laboratory results as given in ChEMBL document CHEMBL3885861, “Open TG-GATES”.

Species: Rattus norvegicus
Test: Open TG-GATES - Regimen: Single
Type: toxicity, organism-based, Sprague-Dawley
Design: regimen Single, gender Male, age 6 weeks
Conditions: in vivo, po, 3 mg/kg, route gavage, dose level Middle; for APTT / Bas / Eos / Fbg / Hb / Ht / Lym / MCH / MCHC / MCV / Mono / PT / Plat / RBC / Ret / WBC: tissue Blood; for KIDNEY_L / KIDNEY_R / KIDNEY_TOTAL: tissue Kidney; for LIVER: tissue Liver

C#C[C@]1(O)CC[C@H]2[C@@H]3CCc4cc(O)ccc4[C@H]3CC[C@@]21C [ETHINYL ESTRADIOL]
TERMINAL_BW (3 h): 198.2 g
APTT (3 h): 15.8 s
Bas (3 h): 0%
Eos (3 h): 1%
Fbg (3 h): 257.8 mg/dL
Hb (3 h): 12.9 g/dL
Ht (3 h): 39.4%
Lym (3 h): 75.8%
MCH (3 h): 21.4 pg
MCHC (3 h): 32.9%
MCV (3 h): 65 fL
Mono (3 h): 3.6%
PT (3 h): 12.2 s
Plat (3 h): 110.2 x10_4/uL
RBC (3 h): 607 x10_4/ul
Ret (3 h): 10.6%
WBC (3 h): 86.9 x10_2/uL
KIDNEY_L (3 h): 0.8 g
KIDNEY_R (3 h): 0.8 g
KIDNEY_TOTAL (3 h): 1.7 g
LIVER (3 h): 8.5 g
ALP (3 h, tissue Plasma): 1631.6 IU/L
ALT (3 h, tissue Plasma): 47.8 IU/L
AST (3 h, tissue Plasma): 80.2 IU/L
BUN (3 h, tissue Plasma): 10.2 mg/dL
CRE (3 h, tissue Plasma): 0.2 mg/dL
Cl (3 h, tissue Plasma): 106.8 meq/L
GLC (3 h, tissue Plasma): 183.4 mg/dL
IP (3 h, tissue Plasma): 9.2 mg/dL
K (3 h, tissue Plasma): 3.8 meq/L
LDH (3 h, tissue Plasma): 49.2 IU/L
PL (3 h, tissue Plasma): 142.6 mg/dL
RALB (3 h, tissue Plasma): 2.5 g/dL
TBIL (3 h, tissue Plasma): 0.038 mg/dL
TC (3 h, tissue Plasma): 75.4 mg/dL
TP (3 h, tissue Plasma): 5.4 g/dL
gamma-GTP (3 h, tissue Plasma): 1.2 IU/L
TERMINAL_BW (6 h): 195.3 g
APTT (6 h): 14.7 s
Bas (6 h): 0.2%
Eos (6 h): 0.8%
Fbg (6 h): 292.8 mg/dL
Hb (6 h): 13 g/dL
Ht (6 h): 38.9%
Lym (6 h): 69.4%
MCH (6 h): 21.9 pg
MCHC (6 h): 33.4%
MCV (6 h): 65.5 fL
PT (6 h): 12.2 s
Plat (6 h): 115.2 x10_4/uL
RBC (6 h): 594.2 x10_4/ul
Ret (6 h): 9.8%
WBC (6 h): 98.2 x10_2/uL
KIDNEY_L (6 h): 0.9 g
KIDNEY_R (6 h): 0.9 g
KIDNEY_TOTAL (6 h): 1.7 g
LIVER (6 h): 8.1 g
ALP (6 h, tissue Plasma): 1993.6 IU/L
ALT (6 h, tissue Plasma): 54.6 IU/L
AST (6 h, tissue Plasma): 106.2 IU/L
BUN (6 h, tissue Plasma): 6.6 mg/dL
CRE (6 h, tissue Plasma): 0.2 mg/dL
Ca (6 h, tissue Plasma): 10.6 mg/dL
Cl (6 h, tissue Plasma): 110 meq/L
DBIL (6 h, tissue Plasma): 0.012 mg/dL
IP (6 h, tissue Plasma): 10.4 mg/dL
LDH (6 h, tissue Plasma): 44.6 IU/L
Na (6 h, tissue Plasma): 144.4 meq/L
PL (6 h, tissue Plasma): 106.4 mg/dL
RALB (6 h, tissue Plasma): 2.5 g/dL
TBIL (6 h, tissue Plasma): 0.038 mg/dL
TC (6 h, tissue Plasma): 51.8 mg/dL
TP (6 h, tissue Plasma): 5.4 g/dL
gamma-GTP (6 h, tissue Plasma): 1.2 IU/L
TERMINAL_BW (9 h): 196.1 g
APTT (9 h): 15.7 s
Bas (9 h): 0%
Eos (9 h): 1%
Fbg (9 h): 261.6 mg/dL
Hb (9 h): 12.8 g/dL
Ht (9 h): 37.6%
Lym (9 h): 72%
MCH (9 h): 22.3 pg
MCHC (9 h): 33.9%
MCV (9 h): 65.8 fL
Mono (9 h): 3%
PT (9 h): 12.7 s
Plat (9 h): 117.1 x10_4/uL
RBC (9 h): 572.4 x10_4/ul
Ret (9 h): 10.2%
WBC (9 h): 81.1 x10_2/uL
KIDNEY_L (9 h): 0.8 g
KIDNEY_R (9 h): 0.8 g
KIDNEY_TOTAL (9 h): 1.7 g
LIVER (9 h): 7.6 g
ALP (9 h, tissue Plasma): 1530.6 IU/L
ALT (9 h, tissue Plasma): 36.4 IU/L
AST (9 h, tissue Plasma): 72 IU/L
BUN (9 h, tissue Plasma): 9 mg/dL
CRE (9 h, tissue Plasma): 0.2 mg/dL
Ca (9 h, tissue Plasma): 10.4 mg/dL
Cl (9 h, tissue Plasma): 109.2 meq/L
DBIL (9 h, tissue Plasma): 0.012 mg/dL
IP (9 h, tissue Plasma): 10.4 mg/dL
K (9 h, tissue Plasma): 3.7 meq/L
LDH (9 h, tissue Plasma): 39.6 IU/L
Na (9 h, tissue Plasma): 145.4 meq/L
PL (9 h, tissue Plasma): 95.4 mg/dL
RALB (9 h, tissue Plasma): 2.6 g/dL
TBIL (9 h, tissue Plasma): 0.048 mg/dL
TC (9 h, tissue Plasma): 45.4 mg/dL
TP (9 h, tissue Plasma): 5.3 g/dL
gamma-GTP (9 h, tissue Plasma): 1 IU/L
TERMINAL_BW (24 h): 200 g
APTT (24 h): 18.1 s
Bas (24 h): 0%
Eos (24 h): 1%
Fbg (24 h): 220.8 mg/dL
Ht (24 h): 39%
Lym (24 h): 77.8%
MCH (24 h): 22 pg
MCHC (24 h): 34%
MCV (24 h): 64.6 fL
Mono (24 h): 4%
PT (24 h): 13.4 s
Plat (24 h): 110.4 x10_4/uL
RBC (24 h): 604.4 x10_4/ul
Ret (24 h): 8.1%
WBC (24 h): 92.7 x10_2/uL
KIDNEY_L (24 h): 0.9 g
KIDNEY_R (24 h): 0.9 g
KIDNEY_TOTAL (24 h): 1.8 g
LIVER (24 h): 9.6 g
ALP (24 h, tissue Plasma): 2004.2 IU/L
ALT (24 h, tissue Plasma): 43 IU/L
AST (24 h, tissue Plasma): 70.6 IU/L
BUN (24 h, tissue Plasma): 10.8 mg/dL
CRE (24 h, tissue Plasma): 0.2 mg/dL
Ca (24 h, tissue Plasma): 10.8 mg/dL
Cl (24 h, tissue Plasma): 106.4 meq/L
DBIL (24 h, tissue Plasma): 0.024 mg/dL
IP (24 h, tissue Plasma): 7 mg/dL
K (24 h, tissue Plasma): 4.3 meq/L
LDH (24 h, tissue Plasma): 62.8 IU/L
PL (24 h, tissue Plasma): 106.4 mg/dL
RALB (24 h, tissue Plasma): 2.5 g/dL
TBIL (24 h, tissue Plasma): 0.042 mg/dL
TC (24 h, tissue Plasma): 39 mg/dL
TP (24 h, tissue Plasma): 5.3 g/dL
